Target: M. tuberculosis RnhC (Mt RnhC; Rv2228c; M. tuberculosis RNase HI) (Mycobacterium tuberculosis, UniProt P9WLH5)
Assay: biochemical

Sequence of M. tuberculosis RnhC (Mt RnhC; Rv2228c; M. tuberculosis RNase HI) (P9WLH5 whole entry): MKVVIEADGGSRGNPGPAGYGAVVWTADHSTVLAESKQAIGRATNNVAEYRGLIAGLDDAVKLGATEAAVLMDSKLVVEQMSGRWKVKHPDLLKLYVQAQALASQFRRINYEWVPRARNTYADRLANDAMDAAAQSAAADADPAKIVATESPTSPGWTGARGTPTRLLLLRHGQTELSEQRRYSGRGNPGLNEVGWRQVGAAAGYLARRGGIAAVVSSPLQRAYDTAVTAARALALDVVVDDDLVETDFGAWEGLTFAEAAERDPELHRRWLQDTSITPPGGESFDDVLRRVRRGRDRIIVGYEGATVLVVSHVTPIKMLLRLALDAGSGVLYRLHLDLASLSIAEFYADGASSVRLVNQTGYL

Question: Which IC50 does the source give for CC(C)c1ccc(O)c(=O)c(O)c1 [NSC18806] here?
Answer: Its IC50 is 32 µM.

Question: How did the IC50 turn out when O=S(=O)(N/N=C/c1c(O)ccc2ccccc12)c1cc(Cl)c(Cl)cc1Cl [NSC99726] was run?
Answer: Its IC50 is 45 µM.

Question: For Oc1ccc(-c2csc(Nc3ccccn3)n2)cc1O [NSC353720], which IC50 is on record?
Answer: The IC50 was 12 µM.

Question: For COc1ccc(C2COc3cc(O)c(O)cc3C2)cc1 (stereo not shown) [NSC600285], which IC50 is on record?
Answer: Its IC50 is 17 µM.

— article doi:10.1101/2021.07.14.452003v1 (biorxiv, 2021)
